Experimental data from patent publication US20020068367A1, “Linker and method for solid phase combinatorial synthesis” (priority 2000, published 2002).
Where “and” joins values, the source holds several entries; their conditions need not be identical. Equal entries are not always repeated.

Target: T1, fluorescein-streptavidin (Streptomyces avidinii, UniProt P22629)
T1 construct: purchased Calbiochem-Novabiochem Corp., La Jolla, Calif; 189734
Assay: Standard protein-binding assay: fluorescein-streptavidin binding to linker on streptavidin-coated 96-well plates
Description: Referring to the drawings, and particularly to FIG. 1, generic reactions illustrating two variations of the screening system of the present invention are shown. FIGS. 1a-1d illustrate the generic System 1 reaction wherein a compound comprised of a tether connecting biotin with a chemical compound containing a nitrophenyl group is applied to a streptavidin coated solid phase. The amount of fluorescein-protein complex (c), where the exemplary protein is fluorescein-anti-DNP antibody, bound to the biotin-tether-nitrophenyl complex is characterized by detecting the magnitude of fluorescence emission in each individual well at the completion of the reaction. Similarly, FIG. 1e-1h illustrates the generic System 2 reaction wherein a tether connects 2 biotin groups together and streptavidin is coated on the solid phase. As in the System 1 reaction, the amount of fluorescein-protein complex (g), where the exemplary protein is fluorescein-streptavidin, bound to the biotin-tether-biotin complex is characterized through the detection of fluorescence emissions in each individual well at the completion of the reaction.
In the quantification of the interaction between fluoresceinated-proteins and linkers is characterized by detecting the magnitude of fluorescence emissions in each individual well at the completion of standard protein-binding assay procedures.
A standard protein-binding assay comprises a multi-step process in which strepeavidin pre-treated 96-well plates are exposed to a solution containing linker followed by exposure to a solution containing fluorescein-labeled protein. The 96-well plates are coated with a commercially available streptavidin solution (cat #BPS00100; Xenopore Corp., Hawthorne, N.J.) and then pre-incubated with 300 μl PBS buffer for 10 minutes at room temperature. To complete the pre-incubation process, the PBS buffer is discarded and the plates are further washed five times with water. Once the plate is sufficiently washed, add to the wells 100 μl of pre-mixed binding buffer containing the desired linker, the preparation of which is as described above. After addition of the linker solution, the plate is incubated at 37° C. for one hour. Upon completion of incubation, the linker solution is discarded and the plate is washed with five changes of water. For the fifth step of the assay process, 100 μl of a premixed reaction solution containing 1 M Tris, 0.5 M NaCl and the fluorescein-labeled proteins are added to selected wells of the plate with bound linker. The fluorescein conjugated proteins, anti-dinitrophenyl antibody (rabbit IgG fraction, cat #A-6423) (anti-DNP) and streptavidin (cat #189734) are commercially available from Molecular Probes, Inc., Eugene, Oreg. and Calbiochem Inc., San Diego, Calif. Upon addition of the protein solutions, the plate is further incubated at 37° C. for one hour. Following the incubation period, the reacting solution in each well is discarded and the wells are washed with five changes of 1 M Tris or 30 changes of water. After this final washing step, 250 μl of elution buffer containing 0.5 mM NaOH, methanol and 20 mM EDTA is added to each well and the plate is read using a Spectra MAX Gemini fluorescein plate reader (Molecular Devices Corp., Sunnyvale, Calif.).
Using the standard protein-binding assay described above, linkers 1-7 are evaluated for their ability to bind fluorescein-streptavidin or fluorescein-anti-DNP. The detection of fluorescence emission beyond that of the control would indicate that the fluorescein labeled protein has bound to the corresponding linker. Lack of fluorescence emission would indicate that either the linker or the fluorescein-bound proteins are absent, or that an improper linker was used. This may be interpreted as meaning that the protein of interest, in this exemplary example streptavidin or anti-DNP, “recognizes” the particular library compound being used in the experiment. […]

[1] = Table 5, linker 3 50 nmol, streptavidin-fluorescein 100 pmol
[2] = [Linker] 3 2.5 nmol, fluorescein-streptavidin 100 pmol
[3] = [Linker] 3 5.0 nmol, fluorescein-streptavidin 100 pmol
[4] = [Linker] 3 25.0 nmol, fluorescein-streptavidin 100 pmol
[5] = [Linker] 3 50.0 nmol, fluorescein-streptavidin 100 pmol
[6] = [Linker] 3 250.0 nmol, fluorescein-streptavidin 100 pmol
[7] = [Linker] 3 500.0 nmol, fluorescein-streptavidin 100 pmol
[8] = [Linker] 3 2500.0 nmol, fluorescein-streptavidin 100 pmol
[9] = [Linker] 3 5000.0 nmol, fluorescein-streptavidin 100 pmol
[10] = linker 3 50 nmol, [STREP] 0 pmol (linker only)
[11] = linker 3 50 nmol, [STREP] 0.15 pmol
[12] = linker 3 50 nmol, [STREP] 0.3 pmol
[13] = linker 3 50 nmol, [STREP] 1.0 pmol
[14] = linker 3 50 nmol, [STREP] 3.0 pmol
[15] = linker 3 50 nmol, [STREP] 15.0 pmol
[16] = linker 3 50 nmol, [STREP] 30.0 pmol
[17] = linker 3 50 nmol, [STREP] 45.0 pmol
[18] = linker 3 50 nmol, [STREP] 60.0 pmol

T1 sequence (P22629 25-183): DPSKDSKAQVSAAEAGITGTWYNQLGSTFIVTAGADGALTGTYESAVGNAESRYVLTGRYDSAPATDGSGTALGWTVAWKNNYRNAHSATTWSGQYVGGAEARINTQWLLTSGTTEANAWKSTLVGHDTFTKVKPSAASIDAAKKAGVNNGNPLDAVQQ

O=C(CCCCCNC(=O)CCCCCNC(=O)CCCCC1SCC2NC(=O)NC21)NCCCCCNC(=O)CCCCCNC(=O)CCCCC1SCC2NC(=O)NC21 (stereo not drawn) [Linker 3]
Increase in fluorescence emission (100-fold increase in linker 3 concentration (0.5 nmol to 50 nmol)): no significant increase | Increase in fluorescence emission (100-fold increase in linker concentration at much higher concentrations of linker 3): 2 fold | Fluorescence emission, mean of Columns 1-3 [1]: 479.29 | Fluorescence emission, sum of Columns 1-2 [1]: 987.05 | Fluorescence emission, sum of Columns 1-3 [1]: 1437.9 | Fluorescence emission (Table 5, linker 3 50 nmol, streptavidin-fluorescein 100 pmol, replicates): 492.22 and 494.83 and 450.81 | Detected fluorescence emission (Well #1, linker 3 50 nmol, streptavidin-fluorescein 100 pmol): about 500 | Fluorescence emission, mean of Columns 1-3 [2]: 181.30 | Fluorescence emission, sum of Columns 1-2 [2]: 406.14 | Fluorescence emission, sum of Columns 1-3 [2]: 543.91 | Fluorescence emission ([Linker] 3 2.5 nmol, fluorescein-streptavidin 100 pmol, replicates): 230.68 and 175.46 and 137.77 | Fluorescence emission, mean of Columns 1-3 [3]: 193.80 | Fluorescence emission, sum of Columns 1-2 [3]: 467.1 | Fluorescence emission, sum of Columns 1-3 [3]: 581.41 | Fluorescence emission ([Linker] 3 5.0 nmol, fluorescein-streptavidin 100 pmol, replicates): 239.14 and 227.96 and 114.31 | Fluorescence emission, mean of Columns 1-3 [4]: 211.91 | Fluorescence emission, sum of Columns 1-2 [4]: 469.52 | Fluorescence emission, sum of Columns 1-3 [4]: 635.73 | Fluorescence emission ([Linker] 3 25.0 nmol, fluorescein-streptavidin 100 pmol, replicates): 223.84 and 245.68 and 166.21 | Fluorescence emission, mean of Columns 1-3 [5]: 280.99 | Fluorescence emission, sum of Columns 1-2 [5]: 502.51 | Fluorescence emission, sum of Columns 1-3 [5]: 782.96 | Fluorescence emission ([Linker] 3 50.0 nmol, fluorescein-streptavidin 100 pmol, replicates): 226.70 and 275.81 and 280.45 | Fluorescence emission, mean of Columns 1-3 [6]: 313.49 | Fluorescence emission, sum of Columns 1-2 [6]: 597.65 | Fluorescence emission, sum of Columns 1-3 [6]: 940.47 | Fluorescence emission ([Linker] 3 250.0 nmol, fluorescein-streptavidin 100 pmol, replicates): 261.21 and 336.44 and 342.82 | Fluorescence emission, mean of Columns 1-3 [7]: 352.86 | Fluorescence emission, sum of Columns 1-2 [7]: 703.68 | Fluorescence emission, sum of Columns 1-3 [7]: 1058.6 | Fluorescence emission ([Linker] 3 500.0 nmol, fluorescein-streptavidin 100 pmol, replicates): 325.94 and 377.74 and 354.91 | Fluorescence emission, mean of Columns 1-3 [8]: 457.81 | Fluorescence emission, sum of Columns 1-2 [8]: 920.68 | Fluorescence emission, sum of Columns 1-3 [8]: 1373.4 | Fluorescence emission ([Linker] 3 2500.0 nmol, fluorescein-streptavidin 100 pmol, replicates): 474.19 and 446.49 and 452.76 | Fluorescence emission, mean of Columns 1-3 [9]: 440.22 | Fluorescence emission, sum of Columns 1-2 [9]: 883.57 | Fluorescence emission, sum of Columns 1-3 [9]: 1320.7 | Fluorescence emission ([Linker] 3 5000.0 nmol, fluorescein-streptavidin 100 pmol, replicates): 447.77 and 435.80 and 437.09 | Effect on binding capacity of fluorescein-streptavidin (generic System 2): significantly enhances the binding capacity | Fluorescence emission (linker 3 0.5 nmol, fluorescein-streptavidin 100 pmol): 239.14 | Fluorescence emission, mean of Columns 1-3 [10]: 150.00 and 142.49 | Fluorescence emission, sum of Columns 1-2 [10]: 311.12 and 280.3 | Fluorescence emission, sum of Columns 1-3 [10]: 450.01 and 427.46 | Fluorescence emission (linker 3 50 nmol, [STREP] 0 pmol (linker only), replicates): 158.28 and 152.84 and 138.89 and 156.28 and 124.02 and 147.16 | Fluorescence emission, mean of Columns 1-3 [11]: 147.68 | Fluorescence emission, sum of Columns 1-2 [11]: 276.44 | Fluorescence emission, sum of Columns 1-3 [11]: 443.03 | Fluorescence emission (linker 3 50 nmol, [STREP] 0.15 pmol, replicates): 110.75 and 110.57 and 165.87 and 166.59 | Fluorescence emission, mean of Columns 1-3 [12]: 129.73 | Fluorescence emission, sum of Columns 1-2 [12]: 226.97 | Fluorescence emission, sum of Columns 1-3 [12]: 389.19 | Fluorescence emission (linker 3 50 nmol, [STREP] 0.3 pmol, replicates): 72.275 and 154.69 and 162.22 | Fluorescence emission, mean of Columns 1-3 [13]: 197.16 | Fluorescence emission, sum of Columns 1-2 [13]: 389.28 | Fluorescence emission, sum of Columns 1-3 [13]: 591.47 | Fluorescence emission (linker 3 50 nmol, [STREP] 1.0 pmol, replicates): 167.36 and 221.92 and 202.19 | Fluorescence emission, mean of Columns 1-3 [14]: 253.59 | Fluorescence emission, sum of Columns 1-2 [14]: 542.04 | Fluorescence emission, sum of Columns 1-3 [14]: 760.78 | Fluorescence emission (linker 3 50 nmol, [STREP] 3.0 pmol, replicates): 237.61 and 304.43 and 218.74 | Fluorescence emission, mean of Columns 1-3 [15]: 257.02 | Fluorescence emission, sum of Columns 1-2 [15]: 482.28 | Fluorescence emission, sum of Columns 1-3 [15]: 771.07 | Fluorescence emission (linker 3 50 nmol, [STREP] 15.0 pmol, replicates): 220.15 and 262.13 and 288.79 | Fluorescence emission, mean of Columns 1-3 [16]: 326.19 | Fluorescence emission, sum of Columns 1-2 [16]: 601.80 | Fluorescence emission, sum of Columns 1-3 [16]: 978.58 | Fluorescence emission (linker 3 50 nmol, [STREP] 30.0 pmol, replicates): 395.67 and 206.13 and 376.78 | Fluorescence emission, mean of Columns 1-3 [17]: 474.38 | Fluorescence emission, sum of Columns 1-2 [17]: 994.49 | Fluorescence emission, sum of Columns 1-3 [17]: 1423.2 | Fluorescence emission (linker 3 50 nmol, [STREP] 45.0 pmol, replicates): 454.46 and 540.03 and 428.66 | Fluorescence emission, mean of Columns 1-3 [18]: 463.43 | Fluorescence emission, sum of Columns 1-2 [18]: 959.13 | Fluorescence emission, sum of Columns 1-3 [18]: 1390.3 | Fluorescence emission (linker 3 50 nmol, [STREP] 60.0 pmol, replicates): 548.75 and 410.38 and 431.15 | Increase in fluorescence emission (linker 3, 100-fold increase in fluorescein-streptavidin concentration (0.15 to 15 pm)): 2 fold
